# Assay results reported in patent US20130178517A1, “Methods And Compositions For Treatment Of Lipogenic Virus Related Conditions” (priority 2010, published 2013).
# Entries after “also recorded” stand apart in the source; their conditions may differ.
# Tests used:
# [1] = test system: Ad-36 in preadipocytes; conditions: preadipocytes in tissue culture; cited from earlier work
# [2] = test system: FAS protein in MCF-7 cells infected with Ad-36; test: FAS protein expression (Western blot) in MCF-7 cells infected with Ad-36; type: cell-based, human; conditions: Ad-36-infected MCF-7 cells; for FAS protein expression: vs infected untreated control; for amount of FAS protein: range of 10 uM/L to 100 uM/L (FIG. 8)
# Experimental: MCF-7 cells were incubated with Adv36 and a range of 10 uM/L to 100 uM/L of Didox or Tridox.
# Human breast cancer cells (MCF-7) were infected with Ad-36 virus and treated with antiviral compounds Didox or Tridox. MCF-7 cells were incubated with Ad-36 and a range of about 10 μM/L to about 100 μM/L of Didox or Tridox. The control for the experiments was MCF-7 cells infected with Ad-36 that were not treated with an antiviral compound. Fifty micrograms of protein was loaded per lane on an SDS-PAGE gel, followed by Western blot analysis detecting FAS.
# [3] = test system: FAS protein in 3T3-L1 cells; test: FAS protein expression (Western blot) in 3T3-L1 preadipocyte cells with MDI and Ad-36; type: cell-based, mouse; conditions: for FAS protein as dosage is increased: 3T3-L1 preadipocyte cells (FIG. 9 as described)
# Experimental: The effects of Tridox on FAS protein expression were evaluated in 3T3-L preadipocyte cells. Control cells were maintained without exposure to Ad-36 or to the differentiation cocktail of methyl-isobutyl-xanthine, dexamethasone, and insulin (MDI). See, e.g., Ntambi and CheulKim, J. Nutrition, 120: […] for description of MDI differentiation cocktail.
# [4] = test system: Ad-36; test: Replication of Ad-36 in A549 cells assessed by cytopathic effect (CPE); type: cell-based, human adenovirus 36 in human A549 cells; conditions: multiple different doses, 100 TCID/well, CPE 3 and 4 days post-infection
# Experimental: A549 cells were infected with a fixed amount of Ad-36 (100 TCID/well) for 2 hours, then media containing the virus was removed, replaced with serial dilutions of metformin, luteolin, or a combination. Cytopathic effect (CPE) was evaluated 3 days and 4 days post-infection (PI). Each condition had 8 wells. The efficacy of the different drug treatments was evaluated by determining whether there were fewer wells with CPE as compared to the control condition for the different treatment conditions, which reflected the degree to which a particular treatment was working to inhibit the virus.
# [5] = test system: Ad-36; test: TCID50 of A549 cells exposed to Ad-36; type: cell-based, human adenovirus 36 in human A549 cells
# Experimental: “TCID50” refers to 50% tissue culture infective dose (TCID50), an endpoint dilution assay that quantifies the amount of virus required to kill 50% of infected hosts or to produce a cytopathic effect in 50% of inoculated tissue culture cells.
# The experimental conditions were assessed: (A) Control condition in which cells were infected with the virus throughout incubation, no luteolin added; (B) Cells and virus were both pretreated with luteolin, then the cells were incubated with both the virus and luteolin; and (C) Cells pretreated with luteolin only, luteolin removed, then cells incubated with virus but without luteolin. The TCID50 value was calculated for each group.
# [6] = test system: phosphorylated Akt in MCF-10A cells; test: Akt phosphorylation (Western blot) in MCF-10A cells with or without Ad-36 infection; type: cell-based, human
# Experimental: MCF-10A cells were infected with Ad-36 and treated with luteolin and/or metformin, then Akt phosphorylation was measured using Western blot. The top band is phosphorylated Akt. […] Lane 2 is MCF-10A cells infected with Ad-36 virus. Lane 3 is metformin, MCF-10A cells infected with Ad-36 virus. Lane 4 is uninfected MCF-10A cells treated with metformin. Lane 5 is MCF-10A cells infected with Ad-36 virus and treated with luteolin. Lane 6 is uninfected MCF-10A cells treated with luteolin. Lane 7 is MCF-10A cells infected with Ad-36 and treated with a combination of metformin and luteolin. Lane 8 is uninfected MCF-10A cells treated with a combination of metformin and luteolin.
# [7] = test system: MCF-10A cells infected with Ad-36; test: Growth rate (cell count) of MCF-10A cells infected with Ad-36; type: cell-based, human; conditions: 5 μM
# Experimental: FIG. 11 is a graph showing that luteolin reduces the growth rate of MCF-10A cells infected with Ad-36. […] Over a time course, cells were trypsinized and counted using a hemocytometer. As illustrated, ⋄ refers to mock infected cells incubated without luteolin; □ refers to mock infected cells treated with luteolin; Δ refers to Ad-36-infected cells incubated without luteolin; and × refers to Ad-36-infected cells treated with luteolin.
# Luteolin reduces the growth rate of […] (MCF-10A) that have been infected with Ad-36 in tissue culture (FIG. 11). MCF-10A cells were infected with a multiplicity of infection (MOI) of 0.5 at day 0 for 2 hours, then replaced with fresh medium containing 5 μM luteolin or vehicle. At each time period, cells were trypsinzed and counted using a hemocytometer. Fresh luteolin (5 μM) was added on day 0 (after infection), day 3 and day 5 in order to insure a constant concentration of agent. […] The cells infected with Ad-36 and not exposed to luteolin had the highest growth rate, faster than cells without Ad-36. When luteolin is added, cell growth is slowed.
# [8] = MCF-10A cells infected with Ad-36 and treated
# [9] = uninfected MCF-10A cells treated
SMILES,FAS protein expression ([2]; about 50 μM),FAS protein expression ([2]; about 100 μM),amount of FAS protein [2],FAS protein as dosage is increased [3],"effect of Ad-36 on A549 cells (CPE, replication) [4]","Akt phosphorylation [6, 8]","Akt phosphorylation [6, 9]",further results
Nc1ccn(C[C@@H](CO)OCP(=O)(O)O)c(=O)n1 [Cidofovir],–,–,–,–,–,–,–,lipogenic effect of Ad-36 [1]: block the lipogenic effect
"O=C(NO)c1ccc(O)c(O)c1 [Didox, 3,4 dihydrobezohydoxamic acid]",decrease,decrease,decreased,decreased,–,–,–,–
"NC(=NO)c1cc(O)c(O)c(O)c1 [Tridox, 3,4,5 trihydroxybenzamidoxime]",decrease,decrease,decreased,decreased,–,–,–,"FAS protein expression ([2]; about 10 μM): decrease; infection with Ad-36 (conclusion from FAS data) ([3]; 3T3-L1 cells): inhibits infection with Ad-36; FAS protein levels ([3]; 3T3-L1 cells exposed to Ad-36 in media containing 10 μM): even lower; FAS expression ([3]; 3T3-L1 cells infected with Ad-36, then incubated with MDI and 10 μM): modest decrease; FAS expression ([3]; 3T3-L1 cells pretreated with compound, then incubated with MDI and Ad-36): more marked decrease; also recorded: greater decrease"
O=c1cc(-c2ccc(O)c(O)c2)oc2cc(O)cc(O)c12 [luteolin],–,–,–,–,inhibits,marked reduction,stimulated,"virulence of Ad-36 infection / Ad-36 infection ([5]; A549 cells, overall conclusion): blocks virulence; also recorded: inhibits Ad-36 infection; TCID50 value ([5]; Group B: cells and virus pretreated with luteolin, then cells incubated with virus and luteolin, vs control): slightly higher than control; TCID50 value ([5]; Group C: cells pretreated with luteolin only, luteolin removed, then incubated with virus): lowest and low; TCID value ([5]; second experiment (not shown), same condition as Group B, vs control): increased almost twice as much as the control value; growth rate (cell number) ([7]; Ad-36-infected (MOI 0.5) MCF-10A cells): slowest growth rate; also recorded: slow growth rate; cell growth when compound is added ([7]; MCF-10A cells): slowed"
CN(C)C(=N)N=C(N)N [metformin],–,–,–,–,inhibits,marked reduction,stimulated,–
